Data on 38 compounds can be found in patent publication US7288567B2, “Inhibitors of histone deacetylase” (Methylgene Inc., priority 2000, dated 2007).

The target in assay [1] is T1, recombinant human HDAC-1 enzyme (rHDAC-1) (Homo sapiens, UniProt Q13547).
T1 construct: made in house; host or cells: Baculovirus insect cell expression system
The assay can be described thus: Histone deacetylase inhibition, recombinant human HDAC-1. It is filed as biochemical. As to conditions: cloned recombinant human HDAC-1, Baculovirus insect cell expression; read-out: rHDAC-1 IC50. The procedure:
(§1) The reaction was stopped by adding acetic acid (0.04 M, final concentration) and HCl (250 mM, final concentration). The mixture was extracted with ethyl acetate and the released [^3H]-acetic acid was quantified by scintillation counting. For inhibition studies, the enzyme was preincubated with compounds at 4° C. for 30 minutes prior to initiation of the enzymatic assay. IC50 values for HDAC enzyme inhibitors were determined by performing dose response curves with individual compounds and determining the concentration of inhibitor producing fifty percent of the maximal inhibition.

Assay [2] concerns histone deacetylase enzyme in nuclear extracts from H446 cells (pooled HDACs). The assay can be described thus: Histone deacetylase inhibition, H446 nuclear extracts (pooled HDACs). It is filed as biochemical, human. As to conditions: for IC50: H446 nuclear extract, [3H]-acetylated histone substrate; for pooled HDACs percent inhibition: percent inhibition at 20 μM (footnote). The procedure:
HDAC inhibitors were screened against histone deacetylase enzyme in nuclear extracts prepared from the human small cell lung cancer cell line H446 (ATTC HTB-171) and against a cloned recombinant human HDAC-1 enzyme expressed and purified from a Baculovirus insect cell expression system.
as §1, with “For deacetylase assays, 20,000 cpm of the [^3H]-metabolically labeled acetylated histone substrate (M. Yoshida et al., J. Biol. Chem. 265(28): 17174-17179 (1990)) was incubated with 30 μg of H446 nuclear extract or an equivalent amount of the cloned recombinant hHDAC-1 for 10 minutes at 37° C. The reaction” for “The reaction”

T1 sequence (Q13547 whole entry): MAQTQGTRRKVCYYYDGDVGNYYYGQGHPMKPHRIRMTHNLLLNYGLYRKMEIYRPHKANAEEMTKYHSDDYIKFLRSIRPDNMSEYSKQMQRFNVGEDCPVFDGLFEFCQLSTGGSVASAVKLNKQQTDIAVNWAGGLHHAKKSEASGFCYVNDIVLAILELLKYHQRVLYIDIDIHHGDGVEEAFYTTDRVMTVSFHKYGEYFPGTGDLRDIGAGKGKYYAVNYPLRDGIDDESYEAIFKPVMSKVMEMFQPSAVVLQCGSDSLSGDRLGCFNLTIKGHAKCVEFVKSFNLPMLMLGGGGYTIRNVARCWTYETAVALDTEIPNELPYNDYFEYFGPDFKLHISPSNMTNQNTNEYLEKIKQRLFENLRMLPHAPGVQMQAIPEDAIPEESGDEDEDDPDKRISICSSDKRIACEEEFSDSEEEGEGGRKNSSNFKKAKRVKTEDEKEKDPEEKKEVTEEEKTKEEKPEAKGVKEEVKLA

One may read the IC50 as the midpoint of a concentration-inhibition curve. As for `CC(=O)SCC(=O)CCCCCCC(=O)c1cc2ccccc2[nH]1` [Compound 167, 1-Acetylthio-2,9-dioxo-9-(2-indolyl)-nonane], the IC50 in assay [1] stood at 400 nM; in assay [2] it was 300 nM.
For the compound `COc1ccc(NC(=O)CCCCCCC(=O)c2ccc(-c3ccccc3)cc2)c(N)c1` [Compound 81, N-(4-(3-Amino)anisole)-7-[(4-biphenyl)carbonyl]heptanamide], in assay [1], the IC50 is 25000 nM. Also, in assay [2], the “pooled HDACs percent inhibition” value amounted to 27%.
Regarding `CN(c1ccccc1)c1ccc(C(=O)CCCCCCC(=O)NO)cc1` [Compound 138b, N-Hydroxy-7-[4-(N-methyl-N-phenyl)benzoyl]heptanamide], the IC50 in assay [1] came out at 8 nM; in assay [2], 49 nM.
On the same counts, the results for `O=C(CCCCCNS(=O)(=O)c1ccccc1)NO` [Compound 47, N-Hydroxy-6-(benzenesulfonylamino)hexanamide] are 500 nM and 4500 nM.
As to `Nc1ccccc1NC(=O)CCCCCN1C(=O)c2ccccc2C1=O` [Compound 243a, N-(2-Aminophenyl)-6-(N-phthaloyl)hexanamide], in assay [1], the IC50 came out at 1600 nM. For the same compound, the “pooled HDACs percent inhibition” value in assay [2] was found to be 6%.
On the same counts, the results for `Nc1ccccc1NC(=O)CCCCCCC(=O)c1ccc(-c2ccsc2)cc1` [Compound 117, N-(2-Aminophenyl)-7-[4-(3-thiophenyl)benzoyl]heptanamide] are 9000 nM and 0%.
Take `CC(CCCCC(=O)c1ccc2ccccc2c1)CC(=O)NO` (stereo not drawn) [Compound 199, N-Hydroxy-3-methyl-7-(2-naphthoyl)heptanamide]: the values for the half-maximal inhibitory concentration (IC50) in assay [1] and in assay [2] were 30 nM and 80 nM, respectively.
Take `O=C(CCCCCCC(=O)c1cnc2ccccc2c1)NO` [Compound 141b, N-Hydroxy-7-[(3-quinolinyl)carbonyl]heptanamide]: the IC50 in assay [1] came out at 35 nM. In addition, the “pooled HDACs percent inhibition @ 1 μM” value in assay [2] came out at 71%@ 1 μM.
Taken in the same sequence, the figures for `O=C(CCCCCC(=O)c1cc2ccccc2s1)NO` [Compound 113, N-Hydroxy-6-[(2-benzo[b]thiophene)carbonyl]hexanamide] were 130 nM and 33%@ 1 μM.
As for `O=C(CCCCCCC(=O)c1ccoc1)NO` [Compound 52j, N-hydroxy-7-(3-furanoyl)heptanamide], the IC50 came to 450 nM in assay [1] and 3000 nM in assay [2].
Turning to `O=C(CCCCCCC(=O)c1ccccc1)Nc1cccnc1` [Compound 252], the IC50 in assay [1] is over 20000 nM. Besides, the “pooled HDACs percent inhibition” value in assay [2] is 0%.
Regarding `O=C(CCCCCn1cnc2ccccc2c1=O)NO` [Compound 238a, N-Hydroxy-6-[3-(4-Oxo-4H-quinazolinyl)]hexanamide], in assay [1], the IC50 came to 50 nM. The “pooled HDACs percent inhibition @ 1 μM” value in assay [2] is reported as 0%@ 1 μM.
For `O=C(CCCCCCC(=O)c1ccc(-c2ccccc2)cc1)Nc1ccccc1O` [Compound 74, N-(2-Hydroxyphenyl)-7-[(4-biphenyl)carbonyl]heptanamide], the IC50 in assay [1] was 7800 nM. Also, the “pooled HDACs percent inhibition” value in assay [2] is listed as 0%.
Taken in the same sequence, the figures for `Nc1ccccc1NC(=O)CCCCCCC(=O)c1cc2ccccc2s1` [Compound 164, N-(2-Aminophenyl)-7-[(2-benzo[b]thiophene)carbonyl]heptanamide] were 2300 nM and 18%.
As to `COc1ccc(C(OC)C(C)(C)/C=C/C=C/C(=O)NO)cc1` (stereo not drawn) [Compound 26, N-Hydroxy-6,6-dimethyl-7-methoxy-7-(4-methoxyphenyl)-2,4-heptadienamide], the IC50 in assay [1] amounted to 1000 nM; in assay [2], 5000 nM.
Turning to `Nc1ccccc1NC(=O)CCCCCCC(=O)c1ccc(Br)cc1` [Compound 114, N-(2-Aminophenyl)-7-(4-bromobenzoyl)heptanamide], the figures for the IC50 in assay [1] and in assay [2] were 6300 nM and over 20000 nM, respectively.
Regarding `COc1ccc(C(=O)CCCCCCC(=O)Nc2ccccc2N)cc1` [Compound 53b, N-(2-Aminophenyl)-7-(p-anisoyl)heptanamide], in assay [1], the IC50 is 1000 nM. The “pooled HDACs percent inhibition” value in assay [2] was determined as 0%.
Take `COC(C/C=C/C=C/C(=O)Nc1ccccc1N)c1ccccc1` (stereo not drawn) [Compound 19, N-(2-Aminophenyl)-7-methoxy-7-phenyl-2,4-heptadienamide]: the IC50 in assay [1] was under 20000 nM; in assay [2], over 100000 nM.
Taken in the same sequence, the figures for `COc1ccc(C(=O)C(C)(C)CCCCC(=O)NO)cc1` [Compound 58, N-Hydroxy-6-methyl-6-(4-methoxybenzoyl)-heptanamide] were 250 nM and 3000 nM.
Taken in the same sequence, the figures for `Nc1ccccc1NC(=O)CCCCCCC(=NO)c1ccc2ccccc2c1` (mixture of isomers) [Compound 106, N-(2-Aminophenyl)-8-(E)-oximino-8-(2-naphthyl)octanamide] were 4000 nM and over 20000 nM.
On the same counts, the results for `O=C(CCCCCCC(=O)c1ccc(N2CCOCC2)cc1)NO` [Compound 138i, N-Hydroxy-7-[4-(N-morpholinyl)benzoyl]heptanamide] are 33 nM and 100 nM.
Take `COc1ccc2cc(C(=O)CCCCCCC(=O)NO)ccc2c1` [Compound 105a, N-Hydroxy-7-[2-(6-methoxy)naphthoyl]heptanamide]: the IC50 in assay [1] came out at 10 nM. In assay [2], the “pooled HDACs percent inhibition @ 1 μM” value was 83%@ 1 μM.
For `COc1ccc(/C(CCCCCCC(=O)NO)=N/O)cc1` [Compound 96, N-Hydroxy-8-(E)-oximino-8-(4-methoxyphenyl)octanamide], the IC50 in assay [1] turned out to be 35 nM; in assay [2], 100 nM.
On the same counts, the results for `CC(=O)SCC(=O)CCCCCCC(=O)c1cc2ccccc2n1C` [Compound 165, 1-Acetylthio-2,9-dioxo-9-(2-(N-methyl)indolyl)-nonane] are 90 nM and 40 nM.
As to `CSc1ncccc1C(=O)CCCCCCC(=O)NO` [Compound 105b], in assay [1], the IC50 is 20 nM. In addition, in assay [2], the “pooled HDACs percent inhibition @ 1 μM” value turned out to be 40%@ 1 μM.
Taken in the same sequence, the figures for `O=C(CCCCCCC(=O)c1cccnc1)NO` [Compound 141a1, N-Hydroxy-7-[(3-pyridyl)carbonyl]heptanamide] were 60 nM and 22%@ 1 μM.
For the compound `O=C(CCCCCC/C(=N\O)c1cc2ccccc2s1)NO` [Compound 99, N-Hydroxy-8-(Z)-oximino-8-(2-benzo[b]thiophene)octanamide], the values for the IC50 in assay [1] and in assay [2] were 8 nM and 35 nM, respectively.
Taken in the same sequence, the figures for `O=C(CCCCCCC(=NO)c1ccco1)NO` [Compound 51i, N-Hydroxy-8-oximino-8-(2-furanyl)octanamide] were 100 nM and 900 nM.
On the same counts, the results for `O=C(CCCCCCC(=O)c1ccc(Nc2ccccn2)cc1)NO` [Compound 138d, N-Hydroxy-7-[4-(N-2-aminopyridyl)benzoyl]heptanamide] are 4 nM and 20 nM.
On the same counts, the results for `O=C(CCCCCCC(=NO)c1ccccc1)NO` [Compound 51a, N-Hydroxy-8-oximino-8-phenyloctanamide] are 100 nM and 350 nM.
For the compound `Nc1ccccc1NC(=O)NCCCCCC(=O)c1ccc(-c2ccccc2)cc1` [Compound 92, N-(2-Aminophenyl)-N′-[5-((4biphenyl)carbonyl)pentyl]urea], the IC50 in assay [1] was 15900 nM. The “pooled HDACs percent inhibition” value in assay [2] is 0%.
`O=C(CS)CCCCCCC(=O)c1ccccc1` [Compound 159e, 1-Mercapto-2,9-dioxo-9-phenyl-nonane]: the IC50 in assay [1] and in assay [2] was 50 nM throughout.
As for `Nc1ccccc1NC(=O)CCCCCCC(=O)c1cccc2ccccc12` [Compound 53f, N-(2-Aminophenyl)-7-(1-naphthoyl)heptanamide], the IC50 in assay [1] is 2000 nM. Moreover, the “pooled HDACs percent inhibition” value in assay [2] stood at 3%.
As for `O=C(CCCCCCC(=O)c1ccc(Nc2ccccc2)cc1)NO` [Compound 138a, N-Hydroxy-7-[4-(N-phenyl)benzoyl]heptanamide], the IC50 in assay [1] is 4 nM. Moreover, the “pooled HDACs percent inhibition @ 1 μM” value in assay [2] amounted to 83%@ 1 μM.
Turning to `Nc1ccccc1NC(=O)CCCCCCC(=O)c1ccc(-c2cccnc2)cc1` [Compound 127, N-(2-Aminophenyl)-7-[4-(3-pyridyl)benzoyl]heptanamide], the IC50 in assay [1] is 10300 nM. Also, the “pooled HDACs percent inhibition” value in assay [2] is 0%.
Taken in the same sequence, the figures for `Nc1ccccc1NC(=O)CCCCCn1nnc2ccccc2c1=O` [Compound 239b] were 8100 nM and 14%.
Consider `O=C(CCCCCCC(=O)c1ccc2ccccc2c1)Nc1ccccc1O` [Compound 66, N-(2-Hydroxyphenyl)-7-(2-naphthoyl)heptanamide], for which, in assay [1], the IC50 is 2300 nM. Besides, the “pooled HDACs percent inhibition” value in assay [2] is on record as 0%.
With `O=C(CCCCCCC(=O)c1ccc(N2CCCCC2)cc1)NO` [Compound 138h, N-Hydroxy-7-[4-(1-piperidinyl)benzoyl]heptanamide], 48 nM corresponded to half-maximal inhibition in assay [2] (IC50).
